Laboratory results reported in publication PMC10743086, “Immunofluorescence-Based Assay for High-Throughput Analysis of Multidrug Resistance Markers in Non-Small Cell Lung Carcinoma Patient-Derived Cells” (Diagnostics, 2023).

Assays:
Assay type in all cases: cell-based, human
[1] = test system: Cancer cells (CK8/18+) of patient-derived NSCLC cultures; assay: Cytotoxicity in patient-derived NSCLC cultures, cancer cells; settings: Homo sapiens, 168 h, 7 days treatment
Description: (§1) Tissue samples were collected during surgery, and the NSCLC diagnosis, histological grade, stage, necrosis, and lymph node invasion status were determined by histopathological analysis. […] The surgical specimens were placed in a sterile tube containing antibiotic-antimycotic solution (Sigma-Aldrich Chemie GmbH, Taufkirchen, Germany) and immediately transported to the research laboratory for further processing.
(§2) Upon arrival, the tissue was manually chopped with a surgical blade in a Petri dish under sterile conditions. The samples were cut into 3–5 mm pieces and further dissociated using the Tumor Dissociation Kit (Miltenyi Biotec, Bergisch Gladbach, Germany). The Tumor Dissociation Kit was used to dissociate the cells from the tumor tissue according to the manufacturer’s instructions. The samples were incubated in a 37 °C orbital shaker (KS 4000 ic control, IKA, Königswinter, Germany) at 300 rpm for 90 min. After incubation, the dissociated tissue was placed in DMEM/Ham’s F12 (1:3 ratio) growth medium supplemented with 5% fetal bovine serum (Corning, NY, USA), antibiotic-antimycotic solution, 4 µg/mL hydrocortisone (Sigma-Aldrich Chemie GmbH, Taufkirchen, Germany), 1 µg/mL insulin (Sigma-Aldrich Chemie GmbH, Taufkirchen, Germany), 10 ng/mL epidermal growth factor (BioLegend, San Diego, CA, USA), and 24 µg/mL adenine (Sigma-Aldrich Chemie GmbH, Taufkirchen, Germany). The DMEM and Ham’s F12 growth media were purchased from Sigma-Aldrich Chemie GmbH (Taufkirchen, Germany).
(§3) The dissociated tissue was cultured in T-25 cell culture flasks until cell attachment was observed before the medium was replaced. If no cell attachment was achieved within 7 days, the sample was discarded. Successful patient-derived cultures were maintained at 37 °C in a humidified atmosphere with 5% CO2 and grown to confluence before undergoing further experiments. […] Partial trypsinization was performed by detaching the fibroblast-like cells with 1 mL of 0.05% trypsin for 1 min at 37 °C, followed by 2 min at room temperature (RT).
(§4) Vinorelbine and pemetrexed were purchased from Selleckchem (Houston, TX, USA). Carboplatin, cisplatin, docetaxel, etoposide, gemcitabine, gefitinib, and paclitaxel were purchased from Sigma-Aldrich Chemie GmbH (Taufkirchen, Germany). The cisplatin, carboplatin, and gemcitabine were dissolved in sterile water, while the etoposide, docetaxel, vinorelbine, paclitaxel, gefitinib, and pemetrexed were dissolved in DMSO and stored at −20 °C. Before treatment, all the stock solutions were freshly diluted in sterile water.
(§5) The primary cells were seeded in black, clear bottom 384-well cell culture microplates (Thermo Fisher Scientific, Waltham, MA, USA) in 50 µL of cell growth medium at a density of 1000 cells per well. The compounds were administered 72 h after seeding. The treatment lasted 7 days.
(§6) The immunofluorescence assay for the quantification of MDR markers was optimized to distinguish cancer cells from stromal cells using a cytokeratin 8/18 (CK8/18) antibody cocktail. The cells were fixed with 4% paraformaldehyde for 20 min at RT and washed three times with PBS using the Wellwash Versa microplate washer (Thermo Fisher Scientific, Waltham, MA, USA). The cells were then blocked with 2% bovine serum albumin (BSA) in PBS for 1 h at RT. […] Co-immunostaining with antibodies against MDR markers was performed to detect the presence of ABCB1, ABCC1, and ABCG2 in both the cancer and stromal cells. […] The secondary antibodies were incubated with the cells at RT for 2 h in the dark. […] Finally, the cells were washed three times with PBS and stored at 4 °C in the dark before imaging.

[2] = test system: ABCB1 expression in MRC-5 cells; assay: Immunofluorescence assay of MDR marker ABCB1 expression; settings: five concentrations, 24 h
Description: as §4
(§7) The compounds were administered 48 h after seeding. The treatment lasted 24 h.
as §6
(§8) The fluorescently labeled cells were imaged using the ImageXpress Pico Automated Cell Imaging System (Molecular Devices, San Jose, CA, USA) with a 4x objective after determining the appropriate exposure time for each illumination filter. Analysis of the obtained images was performed using CellReporterXpress software v. 2.8.2.669 (Molecular Devices). The cytotoxicity of the compounds was determined using the Cell Scoring Analysis Protocol. […] Expression of MDR markers was determined using the Multi-Wavelength Cell Scoring Analysis Protocol.

[3] = test system: ABCB1 expression in NCI-H460/R cells; assay: as above; settings: five concentrations, 24 h
Description: as §4, §7, §6, §8

[4] = test system: ABCB1 expression in NCI-H460 cells; assay: as above; settings: five concentrations, 24 h
Description: as §4, §7, §6, §8

[5] = test system: ABCB1 expression in cancer cells (CK8/18+); assay: Immunofluorescence assay of ABCB1 expression in patient-derived NSCLC cultures; settings: 7 days
Description: as §1, §2, §3, §4, §5, §6

[6] = test system: ABCC1 expression in cancer cells (CK8/18+); assay: Immunofluorescence assay of ABCC1 expression in patient-derived NSCLC cultures; settings: 7 days
Description: as §1, §2, §3, §4, §5, §6

[7] = test system: NCI-H460/R cells; assay: Cytotoxicity by immunofluorescence cell scoring (cell counts), multidrug-resistant NSCLC cell line; settings: for IC50: Homo sapiens, 24 h treatment
Text: Human non-small cell lung carcinoma cells (NCI-H460) were purchased from the American Type Culture Collection (Rockville, MD, USA), and normal embryonic lung fibroblasts (MRC-5) were purchased from the European Collection of Authenticated Cell Cultures (Salisbury, UK). Multidrug-resistant NCI-H460/R cells overexpressing ABCB1 were selected from the NCI-H460 cells after selective pressure with doxorubicin [21]. All the cell lines were maintained in MEM medium (Sigma-Aldrich Chemie GmbH, Taufkirchen, Germany) supplemented with 10% FBS, 2 mM L-glutamine, and antibiotic-antimycotic solution. All the cell lines were maintained at 37 °C in a humidified atmosphere with 5% CO2.
as §4, §7, §6, §8

[8] = test system: MRC-5 cells; assay: Cytotoxicity by immunofluorescence cell scoring (cell counts), normal fibroblasts; settings: Homo sapiens, 24 h treatment
Description: as §4, §7, §6, §8

[9] = test system: NCI-H460 cells; assay: Cytotoxicity by immunofluorescence cell scoring (cell counts), NSCLC cell line; settings: Homo sapiens, NCI-H460, 24 h, 24 h treatment
Description: as §4, §7, §6, §8

[10] = culture TR58, cancer cells (CK8/18+)
[11] = culture TR64, cancer cells (CK8/18+)
[12] = culture TR65, cancer cells (CK8/18+)
[13] = culture TR84, cancer cells (CK8/18+)
[14] = culture TR87, cancer cells (CK8/18+)
[15] = MRC-5 (co-culture with NCI-H460)
[16] = MRC-5 (co-culture with NCI-H460/R)
[17] = NCI-H460/R (co-culture with MRC-5)
[18] = NCI-H460 (co-culture with MRC-5)
[19] = MRC5, 24 h, MRC-5 (co-culture with NCI-H460)

Q: How did the IC50 [1, 10] turn out when `Nc1nc2[nH]cc(CCc3ccc(C(=O)N[C@@H](CCC(=O)O)C(=O)O)cc3)c2c(=O)[nH]1` [Pemetrexed, pemetrexed] was run?
A: 181000 nM

Q: And the IC50 [1, 11]?
A: 252000 nM

Q: What about the IC50 [1, 12] of the same compound?
A: 231000 nM

Q: And the IC50 [1, 13]?
A: > 300000 nM

Q: What about the IC50 [1, 14] of the same compound?
A: > 300000 nM

Q: What about the “ABCB1 Expression” value [2, 15] of the same compound?
A: no change

Q: And the “ABCB1 Expression” value [2, 16]?
A: no change

Q: And the “ABCB1 Expression” value ([2]; MRC-5 monoculture)?
A: no change

Q: What about the “ABCB1 Expression” value [3, 17] of the same compound?
A: no change

Q: And the “ABCB1 Expression” value ([3]; NCI-H460/R monoculture)?
A: no change

Q: What about the “ABCB1 Expression” value [4, 18] of the same compound?
A: no change

Q: And the “ABCB1 Expression” value ([4]; NCI-H460 monoculture)?
A: no change

Q: And the ABCB1 Expression [5, 10]?
A: no change

Q: And the ABCB1 Expression [5, 11]?
A: no change

Q: And the ABCB1 Expression [5, 12]?
A: no change

Q: And the ABCB1 Expression [5, 13]?
A: increase (An increase in ABCB1, ABCC1, or ABCG2 expression of at least 20% at a minimum of one concentration is shown in the table.)

Q: And the ABCB1 Expression [5, 14]?
A: increase (An increase in ABCB1, ABCC1, or ABCG2 expression of at least 20% at a minimum of one concentration is shown in the table.)

Q: What about the ABCC1 expression [6, 10] of the same compound?
A: no change

Q: What about the ABCC1 expression [6, 11] of the same compound?
A: no change

Q: What about the ABCC1 expression [6, 12] of the same compound?
A: increase (An increase in ABCB1, ABCC1, or ABCG2 expression of at least 20% at a minimum of one concentration is shown in the table.)

Q: What about the ABCC1 expression [6, 13] of the same compound?
A: increase (An increase in ABCB1, ABCC1, or ABCG2 expression of at least 20% at a minimum of one concentration is shown in the table.)

Q: What about the ABCC1 expression [6, 14] of the same compound?
A: increase (An increase in ABCB1, ABCC1, or ABCG2 expression of at least 20% at a minimum of one concentration is shown in the table.)

Q: What about the IC50 [7, 17] of the same compound?
A: > 300000 nM

Q: What about the IC50 ([7]; NCI-H460/R monoculture) of the same compound?
A: > 300000 nM

Q: And the IC50 [8, 19]?
A: > 300000 nM

Q: And the IC50 ([8]; MRC5, 24 h, MRC-5 monoculture)?
A: > 300000 nM

Q: What about the IC50 ([8]; MRC5, MRC-5 (co-culture with NCI-H460/R)) of the same compound?
A: > 300000 nM

Q: What about the IC50 [9, 18] of the same compound?
A: > 300000 nM

Q: And the IC50 ([9]; NCI-H460 monoculture)?
A: > 300000 nM

Q: With `CCC1=C[C@@H]2CN(C1)Cc1c([nH]c3ccccc13)[C@@](C(=O)OC)(c1cc3c(cc1OC)N(C)[C@H]1[C@@](O)(C(=O)OC)[C@H](OC(C)=O)[C@]4(CC)C=CCN5CC[C@]31[C@@H]54)C2` [Vinorelbine] as the compound, how does the IC50 [1, 10] read?
A: 129 nM

Q: And the IC50 [1, 11]?
A: 172 nM

Q: And the IC50 [1, 12]?
A: > 1000 nM

Q: What about the IC50 [1, 13] of the same compound?
A: 176 nM

Q: What about the IC50 [1, 14] of the same compound?
A: > 1000 nM

Q: And the “ABCB1 Expression” value [2, 15]?
A: no change

Q: What about the “ABCB1 Expression” value [2, 16] of the same compound?
A: no change

Q: What about the “ABCB1 Expression” value ([2]; MRC-5 monoculture) of the same compound?
A: no change

Q: And the “ABCB1 Expression” value [3, 17]?
A: no change

Q: And the “ABCB1 Expression” value ([3]; NCI-H460/R monoculture)?
A: no change

Q: And the “ABCB1 Expression” value [4, 18]?
A: increase (An increase in ABCB1 expression of at least 20% at a minimum of one concentration is shown in the table.)

Q: And the “ABCB1 Expression” value ([4]; NCI-H460 monoculture)?
A: increase (An increase in ABCB1 expression of at least 20% at a minimum of one concentration is shown in the table.)

Q: And the ABCB1 Expression [5, 10]?
A: no change

Q: What about the ABCB1 Expression [5, 11] of the same compound?
A: increase (An increase in ABCB1, ABCC1, or ABCG2 expression of at least 20% at a minimum of one concentration is shown in the table.)

Q: And the ABCB1 Expression [5, 12]?
A: increase (An increase in ABCB1, ABCC1, or ABCG2 expression of at least 20% at a minimum of one concentration is shown in the table.)

Q: What about the ABCB1 Expression [5, 13] of the same compound?
A: increase (An increase in ABCB1, ABCC1, or ABCG2 expression of at least 20% at a minimum of one concentration is shown in the table.)

Q: And the ABCB1 Expression [5, 14]?
A: increase (An increase in ABCB1, ABCC1, or ABCG2 expression of at least 20% at a minimum of one concentration is shown in the table.)

Q: And the ABCC1 expression [6, 10]?
A: no change

Q: What about the ABCC1 expression [6, 11] of the same compound?
A: increase (An increase in ABCB1, ABCC1, or ABCG2 expression of at least 20% at a minimum of one concentration is shown in the table.)

Q: And the ABCC1 expression [6, 12]?
A: increase (An increase in ABCB1, ABCC1, or ABCG2 expression of at least 20% at a minimum of one concentration is shown in the table.)

Q: And the ABCC1 expression [6, 13]?
A: increase (An increase in ABCB1, ABCC1, or ABCG2 expression of at least 20% at a minimum of one concentration is shown in the table.)

Q: And the ABCC1 expression [6, 14]?
A: increase (An increase in ABCB1, ABCC1, or ABCG2 expression of at least 20% at a minimum of one concentration is shown in the table.)

Q: What about the IC50 [7, 17] of the same compound?
A: 838 nM

Q: And the IC50 ([7]; NCI-H460/R monoculture)?
A: 990 nM

Q: And the “resistance of NCI-H460/R cells compared to the NCI-H460 cells” value ([7]; ratio of IC50 values, monocultures)?
A: 27 fold

Q: What about the IC50 [8, 19] of the same compound?
A: 477 nM

Q: What about the IC50 ([8]; MRC5, 24 h, MRC-5 (co-culture with NCI-H460/R)) of the same compound?
A: > 1000 nM

Q: And the IC50 ([8]; MRC5, 24 h, MRC-5 monoculture)?
A: > 1000 nM

Q: And the IC50 [9, 18]?
A: 33.3 nM

Q: And the IC50 ([9]; NCI-H460 monoculture)?
A: 36.6 nM
